For 28 compounds, IC50 results are on record in EP4782453A1 (Beyang Therapeutics Co., Ltd., priority 2023, dated 2025).

The structures appear in SMILES notation.

The term IC50 denotes the midpoint of a concentration-inhibition curve.

One assay addresses T1, Menin-MLL (Homo sapiens, UniProt O00255).
T1 construct: His-Menin (M1-L615 end); purchased BIORTUS BP9210
T1 sequence (O00255 1-615 isoform O00255-1): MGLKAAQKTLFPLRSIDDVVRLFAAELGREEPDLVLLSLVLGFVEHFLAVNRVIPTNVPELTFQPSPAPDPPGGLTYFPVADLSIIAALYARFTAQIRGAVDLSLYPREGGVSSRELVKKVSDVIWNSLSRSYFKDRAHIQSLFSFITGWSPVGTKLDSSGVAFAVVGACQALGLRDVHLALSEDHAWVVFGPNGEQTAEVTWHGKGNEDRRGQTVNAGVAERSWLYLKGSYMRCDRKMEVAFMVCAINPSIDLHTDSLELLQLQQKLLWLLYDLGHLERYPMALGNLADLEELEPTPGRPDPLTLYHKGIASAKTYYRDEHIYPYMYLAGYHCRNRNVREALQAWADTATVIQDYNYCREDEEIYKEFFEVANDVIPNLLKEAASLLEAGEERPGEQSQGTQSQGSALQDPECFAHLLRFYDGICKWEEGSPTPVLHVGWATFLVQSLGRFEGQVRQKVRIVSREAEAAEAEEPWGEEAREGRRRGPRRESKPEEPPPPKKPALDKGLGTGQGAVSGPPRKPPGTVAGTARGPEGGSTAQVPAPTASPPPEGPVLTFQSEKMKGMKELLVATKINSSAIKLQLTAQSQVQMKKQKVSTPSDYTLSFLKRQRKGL
Description: Inhibitory activity against Menin-MLL binding (fluorescence polarization). The following applies: Menin-MLL IC50, fluorescence polarization; 150 nM His-Menin, 15 nM FITC-MLL; 25°C for 60 min. In short, it runs like this: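 His-Menin (M1-L615, 150 nM) preincubated with compound 15 min at 25 °C in HEPES pH 7.5, 50 mM NaCl, 1 mM DTT, 0.01% BSA, then 15 nM FITC-MLL4-43 peptide added for 60 min at 25 °C. Fluorescence polarization read; IC50 from 4-parameter logistic fit, duplicates.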
Background: Fluorescence polarisation rises when a labelled molecule tumbles more slowly, as on binding a larger partner.
Consider `CCN(C(=O)c1cc(F)ccc1-c1cc([C@@H]2CCN(C[C@H]3CC[C@H](NS(=O)(=O)CC)CC3)C2)nc2c1cnn2C)C(C)C` [Example 11-1], for which the IC50 worked out at 0.744 µM.

The compound `CCOC(=O)N1CCN(CCC[C@H](C(C)C)N2CC(c3cc(-c4ccc(F)cc4C(=O)N(CC)C(C)C)c4cnc(C)n4c3)C2)CC1` [Example 471] showed an IC50 of 0.0048 µM.

Turning to `CCN(C(=O)c1cc(F)ccc1-c1cc(N2CC3(CN(C[C@H]4CC[C@H](NS(=O)(=O)CC)CC4)C3)C2)cn2c(C)ncc12)C(C)C` [Example 89, N-ethyl-5-fluoro-2-[3-methyl-6-(6-{[(1r,4r)-4-ethanesulfonamidocyclohexyl]methyl}-2,6-diazaspirocyclo[3.3]heptan-2-yl)imidazo[1,5-a]pyridin-8-yl]-N-(isopropyl)benzamide], the 50% inhibitory concentration (IC50) is 0.173 µM.

Consider `CCN(C(=O)c1cc(F)ccc1-c1cc(C2CCN(C[C@H]3CC[C@H](NS(=O)(=O)CC)CC3)CC2)nn2c(C)ncc12)C(C)C` [Example 136, N-ethyl-5-fluoro-2-[7-methyl-2-(1-{[(1r,4r)-4-ethanesulfonamidocyclohexyl]methyl}piperidin-4-yl)imidazo[1,5-b]pyridazin-4-yl]-N-(isopropyl)benzamide], for which the concentration for half-maximal inhibition (IC50) was determined as 0.129 µM.

Still in this assay, the particulars now being: fluorescence polarization; 150 nM His-Menin, 15 nM FITC-MLL; 25°C for 60 min; read-out: Menin-MLL IC50.
With `CCN(C(=O)c1cc(F)ccc1-c1cc(C2CN(C(CCCN3CCN(CCO)CC3)C(C)C)C2)cc2c(C)ncn12)C(C)C` (stereo not shown) [Example 466, N-ethyl-5-fluoro-2-[7-(1-{6-[4-(2-hydroxyethyl)piperazin-1-yl]-2-methylhexan-3-yl}azacyclobutan-3-yl)-1-methylimidazo[1,5-a]pyridin-5-yl]-N-(isopropyl)benzamide], the IC50 is 0.0029 µM.

With `Cc1nc(F)c2c(-c3ccc(F)cc3C(=O)N3CCOC[C@H]3C)cc(C3CN(C[C@H]4CC[C@@H](c5cnn(C)c5)CC4)C3)cn12` [Example 276-1, (3R)-4-{5-fluoro-2-[1-fluoro-3-methyl-6-(1-{[(1s,4s)-4-(1-methyl-1H-pyrazol-4-yl)cyclohexyl]methyl}azacyclobutan-3-yl)imidazo[1,5-a]pyridin-8yl]benzoyl}-3-methylmorpholine], the IC50 amounted to 0.015 µM.

On to `CCN(C(=O)c1cc(F)ccc1-c1cc(C2CN([C@@H](CCCN3CCC(OC)CC3)C(C)C)C2)cc2c1cnn2C)C(C)C` [Example 399-1, N-ethyl-5-fluoro-2-(6-{1-[(3S)-6-(4-methoxypiperidin-1-yl)-2-methylhexan-3-yl]azacyclobutan-3-yl}-1-methyl-1H-indazol-4-yl)-N-(isopropyl)benzamide], for which the IC50 amounted to 0.11 µM.

`COC1CCN(CCC[C@@H](C(C)C)N2CC(c3cc(-c4ccc(F)cc4C(=O)N4CCOC[C@H]4C)c4cnn(C)c4c3)C2)CC1` [Example 181-1, 4-{4-fluoro-2-[(3R)-3-methylmorpholin-4-carbonyl]phenyl}-6-{1-[(3S)-6-(4-methoxypiperidin-1-yl)-2-methylhexan-3-yl]azacyclobutan-3-yl}-1-methyl-1H-indazole]: the IC50 was determined as 0.621 µM.

As to `CCN1CCN(C[C@H](C(C)C)N2CC(c3cc(-c4ccc(F)cc4C(=O)N(CC)C(C)C)c4cnn(C)c4c3)C2)CC1` [Example 418], the IC50 came to 0.0063 µM.

Take `Cc1nc(F)c2c(-c3ccc(F)cc3C(=O)N3CCOC[C@H]3C)cc(C3CN(CC4CCN(S(C)(=O)=O)CC4)C3)cn12` [Example 273]: the IC50 is 0.044 µM.

For the compound `CC(=O)N1CC2CCC(C1)N2CCC[C@H](C(C)C)N1CC(c2cc(-c3ccc(F)cc3C(=O)N3CCOC[C@H]3C)c3cnn(C)c3c2)C1` [Example 383], the IC50 was found to be 0.017 µM.

As to `CCN(C(=O)c1cc(F)ccc1-c1cc(C2CN(C(C[C@@H](O)CO)C(C)C)C2)cn2c(C)ncc12)C(C)C` (stereo partly drawn) [Example 438, 2-(6-{1-[(5R)-5,6-dihydroxyl-2-methylhexan-3-yl]azacyclobutan-3-yl}-3-methylimidazo[1,5-a]pyridin-8-yl)-N-ethyl-5-fluoro-N-(isopropyl)benzamide], the IC50 is 0.014 µM.

Regarding `CCN(C(=O)c1cc(F)ccc1-c1cc(C2CCN(C[C@H]3C[C@@H](NS(=O)(=O)CC)C3)C2)cn2c(C)ncc12)C(C)C` (stereo partly shown) [Example 103], the IC50 turned out to be 0.0705 µM.

As for `C=C1C[C@@H]2CC[C@H]1[C@@H](C(=O)N1CCC(c3cc(-c4ccc(F)cc4C(=O)N(CC)C(C)C)c4cncn4c3)CC1)N2` [Compound 39, N-ethyl-5-fluoro-2-(6-{1-[(1S,3S,4R)-5-methylene-2-azabicyclo[2.2.2]octan-3-carbonyl]piperidin-4-yl}imidazo[1,5-a]pyridin-8-yl)-N-(isopropyl)benzamide], the IC50 came out at 0.137 µM.

As to `CCC(=O)N1CCC([C@@H](C)N2CC(c3cc(-c4ccc(F)cc4C(=O)N4CCOC[C@H]4C)c4cnc(C)n4c3)C2)CC1` [Example 319-2, 1-{4-[(1R)-1-[3-(8-{4-fluoro-2-[(3R)-3-methylmorpholin-4-carbonyl]phenyl}-3-methylimidazo[1,5-a]pyridin-6-yl)azacyclobutan-1-yl]ethyl]piperidin-1-yl}propan-1-one], the IC50 stood at 0.328 µM.

On to `CC(C)CS(=O)(=O)N1CCC(CN2CC(c3cc(-c4ccc(F)cc4C(=O)N4CCOC[C@H]4C)c4cnn(C)c4c3)C2)CC1` [Example 176], for which the IC50 is 0.424 µM.

Turning to `Cc1nc(F)c2c(-c3ccc(F)cc3C(=O)N3CCOC[C@H]3C)cc(C3CN([C@@H](C)C4CCN(C(=O)C5CC5)CC4)C3)cn12` [Example 299], the IC50 worked out at 0.015 µM.

For `CC(=O)N1CC2CCC(C1)N2CCC[C@H](C(C)C)N1CC(c2cc(-c3ccc(F)cc3C(=O)N3CCOC[C@H]3C)c3cnc(C)n3c2)C1` [Example 348, 1-{8-[(4R)-4-[3-(8-{4-fluoro-2-[(3R)-3-methylmorpholin-4-carbonyl]phenyl}-3-methylimidazo[1,5-a]pyridin-6-yl)azacyclobutan-1-yl]-5-methylhexyl]-3,8-diazabicyclo[3.2.1]oct-3-yl}ethan-1-one], the IC50 was determined as 0.0073 µM.

On to `CCN(C(=O)c1cc(F)ccc1-c1cc(C2CN([C@H](CCCN3CCNC4(COC4)C3)C(C)C)C2)cn2c(C)ncc12)C(C)C` [Example 483, N-ethyl-5-fluoro-2-(3-methyl-6-{1-[(3R)-2-methyl-6-{2-oxa-5,8-diazaspiro[3.5]non-8-yl}hexan-3-yl]azacyclobutan-3-yl}imidazo[1,5-a]pyridin-8-yl)-N-(isopropyl)benzamide], for which the IC50 is 0.019 µM.

With `Cc1nc(F)c2c(-c3ccc(F)cc3C(=O)N3CCOC[C@H]3C)cc(C3CN(CC4CCOC4)C3)cn12` (stereo partly shown) [Example 240], the IC50 is 0.0535 µM.

For the compound `CCN(C(=O)c1cc(F)ccc1-c1cc(C2CN(C(CO)C(C)C)C2)cn2c(C)ncc12)C(C)C` (stereo not shown) [Example 421, N-ethyl-5-fluoro-2-{6-[1-(1-hydroxyl-3-methylbutan-2-yl)azacyclobutan-3-yl]-3-methylimidazo[1,5-a]pyridin-8-yl}-N-(isopropyl)benzamide], the IC50 worked out at 0.014 µM.

As for `Cc1ncc2c(-c3ccc(F)cc3C(=O)N(CC(F)F)C(C)C)cc(N3CCN(C(=O)[C@@H]4CCCN4)CC3)cn12` [Example 119], the IC50 is 0.041 µM.

On to `Cc1nc(F)c2c(-c3ccc(F)cc3C(=O)N(CC(F)F)C(C)C)cc(C3CN(C(=O)[C@@H]4C[C@@H](C)CCN4)C3)cn12` [Example 155], for which the half-maximal inhibitory concentration (IC50) was found to be 0.023 µM.

With `CCN(C(=O)c1cc(F)ccc1-c1cc(C2CN(C(CCC3(O)COC3)C(C)C)C2)cn2c(C)ncc12)C(C)C` (stereo not shown) [Example 447, N-ethyl-5-fluoro-2-(6-{1-[1-(3-hydroxyloxacyclobutan-3-yl)-4-methylpentan-3-yl]azacyclobut-3-yl}-3-methylimidazo[1,5-a]pyridin-8-yl)-N-(isopropyl)benzamide], the IC50 turned out to be 0.025 µM.

For the compound `CCS(=O)(=O)N[C@@H]1CC[C@@H](CN2CC[C@H](c3cc(-c4ccc(F)cc4C(=O)N(CC(F)F)C(C)C)c4cnc(C)n4c3)C2)OC1` [Example 163-2, N-(2,2-difluoroethyl)-2-{6-[(3R)-1-{[(2S,5R)-5-ethanesulfonamidooxacyclohexan-2-yl]methyl}pyrrolidin-3-yl]-3-methylimidazo[1,5-a]pyridin-8-yl}-5-fluoro-N-(isopropyl)benzamide], the IC50 was 0.054 µM.

For the compound `Cc1nc(F)c2c(-c3ccc(F)cc3C(=O)N3CCOCC3C)cc(C3CN(C(C)C4CCN(C(=O)CC#N)CC4)C3)cn12` (stereo not shown) [Example 263-1], the IC50 came out at 0.074 µM.

With `Cc1nc(F)c2c(-c3ccc(F)cc3C(=O)N3CCOC[C@H]3C)cc(C3CN(CC4CCN(C(=O)N(C)C)CC4)C3)cn12` [Example 246], the IC50 came out at 0.073 µM.

The assay is the same for the next values; noted with them: read-out: Menin-MLL IC50; fluorescence polarization; 150 nM His-Menin, 15 nM FITC-MLL; 25°C for 60 min.
For `CCS(=O)(=O)N[C@H]1CC[C@@H](CN2CC(c3cc(-c4ccc(F)cc4C(=O)N4[C@H](C)COC[C@H]4C)c4c(F)nc(C)n4c3)C2)CC1` [Example 198, N-[(1s,4s)-4-{[3-(8-{2-[(3R,5R)-3,5-dimethylmorpholin-4-carbonyl]-4-fluorophenyl}-1-fluoro-3-methylimidazo[1,5-a]pyridin-6-yl)azacyclobutan-1-yl]methyl}cyclohexyl]ethan-1-sulfonamide], the IC50 was determined as 0.004 µM.
